Entries after “also recorded” stand apart in the source; their conditions may differ.
Tests used:
Details in all cases: pH 7.4
[1] = format: physicochemical
Pep HR2 [2] = format: binding, SARS-CoV
Pep 1E [3] = format: binding, SARS-CoV
Pep 1D = format: binding, SARS-CoV
Pep 2B [4] = format: binding, SARS-CoV
Pep 1E [5] = format: binding, SARS-CoV; remark: listed apart in the source
[6] = format: physicochemical; remark: listed apart in the source
[7] = format: physicochemical; remark: listed apart in the source
Pep 2B [8] = format: binding, SARS-CoV; remark: listed apart in the source
Pep HR2 [9] = format: binding, SARS-CoV; remark: listed apart in the source

Sequence: WQEWEQKITALLEQAQIQQEKNEYELQKLDKWASLWEWF [Pep T-1249]
- membrane partition in presence of Pep 1D [1]: The same occurs
- membrane partition in presence of Pep 1E [1]: The same occurs
- membrane partition in presence of Pep 2B [1]: no difference occurs
- membrane partition in presence of Pep HR2 [1]: no difference occurs
- fluorescence emission intensity variation on titration with Pep HR2 (Pep HR2 [2]): The same occurs for T-1249, although the results are not so evident
- ANS fluorescence / interaction with Pep 1E (Pep 1E [3]): does not interact
- ANS fluorescence increase / interaction with Pep 1D, S peptide added (Pep 1D): exhibit a larger variability; also recorded: low signal/noise ratios, preventing straightforward conclusions
- fluorescence emission intensity variation on titration with Pep 2B (Pep 2B [4]): Fluorescence variation was not detected
- fluorescence emission intensity variation on titration with Pep 1E (Pep 1E [5]): The same occurs for T-1249, although the results are not so evident
- self-aggregation by ANS fluorescence [6]: self-aggregate
- interaction with membranes [7]: most extensive interaction with membranes
- ANS fluorescence / interaction with Pep 2B (Pep 2B [8]): no evidence of interaction
- ANS fluorescence / interaction with Pep HR2 (Pep HR2 [9]): no evidence of interaction
